{
  "source": "patent US8680147B2",
  "about": "“Compositions” (DSM IP Assets B.V., priority 2006, dated 2014)",
  "type_in_all_cases": "cell-based",
  "key": {"[1]": {"test_system": "human collagen 1", "experiment": "Gene expression in human chondrocyte cells (SW1353), quantitative real-time PCR", "experimental": "(§1) The cells were treated with IL-1β, which is one of the natural mediators that induce cartilage breakdown and is detected in substantial amounts in osteoarthritic cartilage tissues and cells derived thereof. Treatment of cells with IL-1β triggers the expression of genes that are involved in catabolic events, such as MMPs. Also, treatment of the cells with IL-1β reduces the collagen expression levels (compared to untreated cells)\n(§2) Chondrocytes (SW1353; purchased from the […] [ATCC]) were grown in cell culture medium according to the instructions from ATCC. For experimental treatments, cells were seeded into 6-well plates and cultured for two days until they reached confluence. Total cellular RNA was extracted from cultured cells and reverse-transcribed as described by Richard et al. Mol. Nutr. Food Res. 49, 431-442, 2005. Expression levels of distinct genes were determined by quantitative real-time PCR as described in Richard et al. Mol. Nutr. Food Res. 49, 431-442, 2005."}, "[2]": {"test_system": "Human MMP-13", "experiment": "Gene expression in human chondrocyte cells (SW1353), quantitative real-time PCR", "experimental": "as §1, §2"}, "[3]": {"test_system": "Human MMP-3", "experiment": "Gene expression in human chondrocyte cells (SW1353), quantitative real-time PCR", "experimental": "as §1, §2"}, "[4]": {"test_system": "Human collagen II", "experiment": "Gene expression in human chondrocyte cells (SW1353), quantitative real-time PCR", "experimental": "as §1, §2"}, "[5]": {"test_system": "Human MMP-1", "experiment": "Gene expression in human chondrocyte cells (SW1353), quantitative real-time PCR", "experimental": "as §1, §2"}, "[6]": {"test_system": "Aggrecan", "experiment": "Gene expression in human chondrocyte cells (SW1353), quantitative real-time PCR", "experimental": "as §1, §2"}, "[7]": {"test_system": "β-defensin (defensin-β4)", "experiment": "Gene expression in cytokine-stimulated keratinocytes, quantitative real time PCR", "details": "for β-defensin gene expression (in % of stimulated cells): keratinocytes, cytokine mix 24 hrs", "experimental": "(§3) Keratinocytes were cultured in standard medium (SFM, invitrogen #1 7005075) until they reached confluence. Culture medium was then changed to assay medium (SFM without epidermal growth factor and pituary extract) and pre-incubated with the test compound for 2 hrs. In order to stimulate the cells, a cytokine mix (see Boniface et al. J. Immunol. 178, 4615-4622, 2007) was added and the cells were cultured for 24 hrs. At the end of the experiment, cells were washed; total RNA was extracted using Trizol reagents (Sigma T9424). The expression levels of specific genes (cytokeratin 10, β-defensin (defensin-β4) and psoriasin (or S100 calcium-binding protein A7) was performed by quantitative real time PCR, using the procedure described in other examples."}, "[8]": {"test_system": "psoriasin (S100 calcium-binding protein A7)", "experiment": "Gene expression in cytokine-stimulated keratinocytes, quantitative real time PCR", "details": "for Psoriasin gene expression (in % of stimulated cells): keratinocytes, cytokine mix 24 hrs", "experimental": "as §3"}, "[9]": {"details": "cytokine-stimulated keratinocytes"}},
  "data": [
    {"smiles": "COc1c(C(C)C)cc2c(c1O)[C@@]1(C(=O)O)CCCC(C)(C)[C@@H]1CC2", "note": "[Carnosic acid-12-methyl ether (I), (4aR,10aS)-carnosic acid 12-methyl ether]", "values": [
      {"measurement": "Effect on expression of human collagen 1 (in words)", "setting": "[1]", "value": "stimulated the expression"},
      {"measurement": "Effect on expression of MMP-13 (in words)", "setting": "[2]", "value": "drastically reduced the expression"},
      {"measurement": "Effect on expression of MMP-3 (in words)", "setting": "[3]", "value": "drastically reduced the expression"},
      {"measurement": "Effect on expression of human collagen 11 (in words)", "setting": "[4]", "value": "stimulated the expression"},
      {"measurement": "Effect on expression of MMP-1 (in words)", "setting": "[5]", "value": "drastically reduced the expression"},
      {"measurement": "Effect on expression of aggrecan (in words)", "setting": "[6]", "value": "stimulated the expression"},
      {"measurement": "β-defensin gene expression (in % of stimulated cells)", "setting": "[7]; 0.1 μmol/L", "value": "49 % of stimulated cells"},
      {"measurement": "β-defensin gene expression (in % of stimulated cells)", "setting": "[7]; 1.0 μmol/L", "value": "47 % of stimulated cells"},
      {"measurement": "β-defensin gene expression (in % of stimulated cells)", "setting": "[7]; 5.0 μmol/L", "value": "28 % of stimulated cells"},
      {"measurement": "Effect on β-defensin expression (in words)", "setting": "[7]; [9]", "value": "dose-dependently reduced the expression"},
      {"measurement": "Psoriasin gene expression (in % of stimulated cells)", "setting": "[8]; 0.1 μmol/L", "value": "46 % of stimulated cells"},
      {"measurement": "Psoriasin gene expression (in % of stimulated cells)", "setting": "[8]; 1.0 μmol/L", "value": "58 % of stimulated cells"},
      {"measurement": "Psoriasin gene expression (in % of stimulated cells)", "setting": "[8]; 5.0 μmol/L", "value": "62 % of stimulated cells"},
      {"measurement": "Effect on psoriasin expression (in words)", "setting": "[8]; [9]", "value": "dose-dependently reduced the expression"}
    ]}
  ]
}
